Measurements as given in PubChem BioAssay (NCI).
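Exposure lasted 48 hours, with cells grown in 96-well plates and compounds tested at five concentrations. The concentration for 50% growth inhibition is given as GI50. TGI: total growth inhibition.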

Columns and labels:
Assay in all cases: NCI anticancer screen, dose series, 48 h
[1] = tested on: ACHN renal
[2] = tested on: PC-3 prostate
[3] = tested on: NCI/ADR-RES ovarian
[4] = tested on: 786-0 renal
[5] = tested on: SF-539 CNS
[6] = tested on: MOLT-4 leukemia
[7] = tested on: A549 NSCLC
[8] = tested on: HT29 colon
[9] = tested on: SK-MEL-5 melanoma
[10] = tested on: EKVX NSCLC
[11] = tested on: SF-295 CNS
[12] = tested on: MDA-MB-231 breast
[13] = tested on: HOP-92 NSCLC
[14] = tested on: M14 melanoma
[15] = tested on: OVCAR-8 ovarian
[16] = tested on: UACC-257 melanoma
[17] = tested on: IGROV1 ovarian
[18] = tested on: CCRF-CEM leukemia
[19] = tested on: NCI-H522 lung
[20] = tested on: MCF7 breast
[21] = tested on: RPMI-8226 leukemia
[22] = tested on: HCC-2998 colon
[23] = tested on: SK-MEL-2 melanoma
[24] = tested on: SN12C renal
[25] = tested on: RXF 393 renal
[26] = tested on: BT-549 breast
[27] = tested on: HOP-62 NSCLC
[28] = tested on: TK-10 renal

With `O=C1Nc2cc(OC(F)(F)F)ccc2Oc2ccc(-c3ccnc(N4CC[C@H](O)C4)c3)cc21` the GI50 [1] was 55.2 nM, the TGI [1] was 5150 nM and the GI50 [2] was 19.4 nM. The TGI [2] was 5480 nM, the GI50 [3] was 30.6 nM and the TGI [3] was 6250 nM. The GI50 [4] was 31.6 nM, the TGI [4] was 2740 nM and the GI50 [5] was 22.7 nM. For the same compound, the TGI [5] was 1040 nM, the GI50 [6] was 32.7 nM and the TGI [6] was 2160 nM. It also gave a GI50 [7] of 39.2 nM, a TGI [7] of 3460 nM and a GI50 [8] of 16.3 nM. The TGI [8] was 261 nM, the GI50 [9] was 37.8 nM and the TGI [9] was 487 nM. It also gave a GI50 [10] of 43.5 nM, a TGI [10] of 20400 nM and a GI50 [11] of 16.6 nM. It also gave a TGI [11] of 6260 nM, a GI50 [12] of 48 nM and a TGI [12] of 1830 nM. The GI50 [13] was 1810 nM, the TGI [13] was 18700 nM and the GI50 [14] was 11.4 nM. The TGI [14] was 1810 nM, the GI50 [15] was 34.3 nM and the TGI [15] was 651 nM. The GI50 [16] was 3600 nM, the TGI [16] was 9370 nM and the GI50 [17] was 43.1 nM. It also gave a TGI [17] of 8780 nM, a GI50 [18] of 25.1 nM and a TGI [18] of 2600 nM. It also gave a GI50 [19] of under 13.1 nM, a TGI [19] of 42.9 nM and a GI50 [20] of under 10 nM. The TGI [20] was 1620 nM, the GI50 [21] was 34.9 nM and the TGI [21] was 2050 nM. For the same compound, the GI50 [22] was 30 nM, the TGI [22] was 1550 nM and the GI50 [23] was 32.1 nM. For the same compound, the TGI [23] was 18500 nM, the GI50 [24] was 103 nM and the TGI [24] was 2680 nM. It also gave a GI50 [25] of under 15.4 nM, a TGI [25] of 323 nM and a GI50 [26] of 138 nM. For the same compound, the TGI [26] was 1690 nM, the GI50 [27] was 35.1 nM and the TGI [27] was 4530 nM. The GI50 [28] was 7650 nM and the TGI [28] was 17300 nM.
